Data from US6403343B2, “Method of producing a taxane-type diterpene and a method of obtaining cultured cells which produce the taxane-type dilterpene at a high rate” (Mitsui Chemicals, Inc., priority 1993, dated 2002).

Key:
[1] = tested on: cultured cells of Taxus baccata LINN; assay: Taxane-type diterpene yield and cell yield, shake culture of Taxus baccata cells with a jasmonic acid (or jasmone) added; type: cell-based; conditions: see Comparative Example No. 24
[2] = tested on: cultured cells of Taxus baccata LINN; assay: Growth rate and taxane yield, 21-day shake culture of Taxus baccata cells with heavy metal compound, amine, antiethylene agent or Ethrel added; type: cell-based
Experimental: (§1) One gram (fresh weight) of the callus was inoculated to an Erlenmeyer flask containing 20 ml of liquid Woody Plant Medium to which the above-mentioned component was added to give the same concentration and shake culture was carried out with a rotary shaker (amplification of 25 mm, 100 rpm) and the callus was subcultured in every 21 days to accelerate the growth rate thereof.
Then shake culture was carried out at 25° C. for 21 days.
(§2) After completing the culture, cultured cells of Taxus baccata LINN were harvested by filtration and lyophilized, then the dry weight was measured to obtain the growth rate thereof. Taxane-type diterpenes were extracted from the dried callus with methanol and the like, and they were determined by comparing with standard taxol, cephalomannine, and baccatin III using high performance liquid chromatography to measure the yields of the taxane-type diterpenes.
as §1
One gram (fresh weight) of the cultured cells thus obtained was inoculated to an Erlenmeyer flask containing 20 ml of liquid Woody Plant Medium to which the above-mentioned component had been added to give the same concentration, then spermidine was added to it as amine to give the final concentration of 10^−9M-1M. Then shake culture was carried out at 25° C. for 21 days.
as §2, with “cells” for “callus”, “diterpene.” for “diterpenes.”
as §1, with “component had been” for “component was”
One gram (fresh weight) of the cultured cells thus obtained was inoculated to an Erlenmeyer flask containing 20 ml of liquid Woody Plant Medium to which the above-mentioned component had been added to give the same concentration, and shake culture was carried out at 25° C. for 14 days.

[3] = Ethrel 10^−3 M added at the start (0 day), no acetylsalicylic acid, oxygen 20%
[4] = Ethrel 10^−3 M added at the start (0 day), no acetylsalicylic acid, oxygen 20%, cell + medium
[5] = 1 M added on 14th day, 7 more days
[6] = 10^−1 M added on 14th day, 7 more days
[7] = 10^−2 M added on 14th day, 7 more days
[8] = 10^−3 M added on 14th day, 7 more days
[9] = 10^−4 M added on 14th day, 7 more days
[10] = 10^−5 M added on 14th day, 7 more days
[11] = 10^−6 M added on 14th day, 7 more days
[12] = 10^−7 M added on 14th day, 7 more days
[13] = 10^−8 M added on 14th day, 7 more days
[14] = 10^−9 M added on 14th day, 7 more days
[15] = 2×10^−6 M added 5 times at 4 days' intervals from day 0, total 10^−5 M
[16] = 10^−1 M added at start, 21 days
[17] = 10^−2 M added at start, 21 days
[18] = 10^−3 M added at start, 21 days
[19] = 10^−4 M added at start, 21 days
[20] = 10^−5 M added at start, 21 days
[21] = 10^−5 M added on 7th day, 14 more days
[22] = 10^−5 M added on 18th day, 3 more days
[23] = 10^−5 M at start + methyl jasmonate 10^−4 M on 14th day
[24] = 10^−5 M at start + methyl jasmonate 10^−4 M on 14th day, oxygen 10% in the gas phase
[25] = 10^−5 M at start, oxygen 10% in the gas phase
[26] = 10^−6 M added at start, 21 days
[27] = 10^−7 M added at start, 21 days
[28] = 10^−8 M added at start, 21 days
[29] = 10^−9 M added at start, 21 days

CC/C=C\CC1=C(C)CCC1=O [jasmone, reference compound]
taxol inducing activity [1]: low

methyl jasmone [reference compound]
taxol inducing activity [1]: low

O=P(O)(O)CCCl [Reference Example 1]
growth rate [2, 3]: 2.7 times | total yield of taxane [2, 3]: 0.40 mg/L | yield of baccatin III [2, 4]: 0.12 mg/L | yield of cephalomannine [2, 4]: 0.14 mg/L | yield of taxol [2, 4]: 0.14 mg/L

CCCOC(=O)c1cc(O)c(O)c(O)c1 [propyl gallate]
growth rate [2, 5]: 1.1 times | total yield of taxane [2, 5]: 0.01 mg/L | yield of baccatin III [2, 5]: 0.01 mg/L | yield of cephalomannine [2, 5]: 0 mg/L | yield of taxol [2, 5]: 0 mg/L | growth rate [2, 6]: 1.9 times | total yield of taxane [2, 6]: 1.38 mg/L | yield of baccatin III [2, 6]: 0.48 mg/L | yield of cephalomannine [2, 6]: 0.25 mg/L | yield of taxol [2, 6]: 0.65 mg/L | growth rate [2, 7]: 2.9 times | total yield of taxane [2, 7]: 7.03 mg/L | yield of baccatin III [2, 7]: 0.69 mg/L | yield of cephalomannine [2, 7]: 2.01 mg/L | yield of taxol [2, 7]: 4.33 mg/L | growth rate [2, 8]: 3.2 times | total yield of taxane [2, 8]: 12.10 mg/L | yield of baccatin III [2, 8]: 0.84 mg/L | yield of cephalomannine [2, 8]: 4.30 mg/L | yield of taxol [2, 8]: 6.96 mg/L | growth rate [2, 9]: 3.0 times | total yield of taxane [2, 9]: 12.27 mg/L | yield of baccatin III [2, 9]: 0.87 mg/L | yield of cephalomannine [2, 9]: 4.42 mg/L | yield of taxol [2, 9]: 6.98 mg/L | growth rate [2, 10]: 3.0 times | total yield of taxane [2, 10]: 16.13 mg/L | yield of baccatin III [2, 10]: 2.82 mg/L | yield of cephalomannine [2, 10]: 5.07 mg/L | yield of taxol [2, 10]: 8.24 mg/L | growth rate [2, 11]: 3.1 times | total yield of taxane [2, 11]: 13.95 mg/L | yield of baccatin III [2, 11]: 1.91 mg/L | yield of cephalomannine [2, 11]: 4.38 mg/L | yield of taxol [2, 11]: 7.66 mg/L | growth rate [2, 12]: 2.7 times | total yield of taxane [2, 12]: 2.79 mg/L | yield of baccatin III [2, 12]: 0.55 mg/L | yield of cephalomannine [2, 12]: 0.72 mg/L | yield of taxol [2, 12]: 1.52 mg/L | growth rate [2, 13]: 2.7 times | total yield of taxane [2, 13]: 1.74 mg/L | yield of baccatin III [2, 13]: 0.42 mg/L | yield of cephalomannine [2, 13]: 0.68 mg/L | yield of taxol [2, 13]: 0.74 mg/L | growth rate [2, 14]: 2.7 times | total yield of taxane [2, 14]: 1.37 mg/L | yield of baccatin III [2, 14]: 0.41 mg/L | yield of cephalomannine [2, 14]: 0.59 mg/L | yield of taxol [2, 14]: 0.37 mg/L

[Cl][Co][Cl] [cobalt chloride]
growth rate ([2]; 1 M added at start, 21 days): 0.6 times | total yield of taxane ([2]; 1 M added at start, 21 days): 0 mg/L | yield of baccatin III ([2]; 1 M added at start, 21 days): 0 mg/L | yield of cephalomannine ([2]; 1 M added at start, 21 days): 0 mg/L | yield of taxol ([2]; 1 M added at start, 21 days): 0 mg/L | growth rate [2, 15]: 2.6 times | total yield of taxane [2, 15]: 27.66 mg/L | yield of baccatin III [2, 15]: 5.32 mg/L | yield of cephalomannine [2, 15]: 6.58 mg/L | yield of taxol [2, 15]: 15.76 mg/L | growth rate [2, 16]: 0.8 times | total yield of taxane [2, 16]: 1.08 mg/L | yield of baccatin III [2, 16]: 0.11 mg/L | yield of cephalomannine [2, 16]: 0.42 mg/L | yield of taxol [2, 16]: 0.55 mg/L | growth rate [2, 17]: 1.4 times | total yield of taxane [2, 17]: 2.14 mg/L | yield of baccatin III [2, 17]: 0.44 mg/L | yield of cephalomannine [2, 17]: 0.78 mg/L | yield of taxol [2, 17]: 0.92 mg/L | growth rate [2, 18]: 2.2 times | total yield of taxane [2, 18]: 7.98 mg/L | yield of baccatin III [2, 18]: 1.57 mg/L | yield of cephalomannine [2, 18]: 2.03 mg/L | yield of taxol [2, 18]: 4.38 mg/L | growth rate [2, 19]: 2.7 times | total yield of taxane [2, 19]: 10.02 mg/L | yield of baccatin III [2, 19]: 1.64 mg/L | yield of cephalomannine [2, 19]: 3.46 mg/L | yield of taxol [2, 19]: 4.92 mg/L | growth rate [2, 20]: 3.2 times | total yield of taxane [2, 20]: 28.29 mg/L | yield of baccatin III [2, 20]: 5.68 mg/L | yield of cephalomannine [2, 20]: 6.50 mg/L | yield of taxol [2, 20]: 16.11 mg/L | growth rate [2, 21]: 3.2 times | total yield of taxane [2, 21]: 20.56 mg/L | yield of baccatin III [2, 21]: 4.36 mg/L | yield of cephalomannine [2, 21]: 5.98 mg/L | yield of taxol [2, 21]: 10.22 mg/L | growth rate [2, 10]: 3.1 times | total yield of taxane [2, 10]: 13.48 mg/L | yield of baccatin III [2, 10]: 2.01 mg/L | yield of cephalomannine [2, 10]: 4.37 mg/L | yield of taxol [2, 10]: 7.10 mg/L | growth rate [2, 22]: 2.9 times | total yield of taxane [2, 22]: 3.60 mg/L | yield of baccatin III [2, 22]: 1.17 mg/L | yield of cephalomannine [2, 22]: 1.11 mg/L | yield of taxol [2, 22]: 1.32 mg/L | growth rate [2, 23]: 2.5 times | total yield of taxane [2, 23]: 62.78 mg/L | yield of baccatin III [2, 23]: 23.00 mg/L | yield of cephalomannine [2, 23]: 9.46 mg/L | yield of taxol [2, 23]: 30.32 mg/L | growth rate [2, 24]: 2.4 times | total yield of taxane [2, 24]: 74.83 mg/L | yield of baccatin III [2, 24]: 25.85 mg/L | yield of cephalomannine [2, 24]: 15.21 mg/L | yield of taxol [2, 24]: 33.77 mg/L | growth rate [2, 25]: 2.7 times | total yield of taxane [2, 25]: 52.24 mg/L | yield of baccatin III [2, 25]: 17.61 mg/L | yield of cephalomannine [2, 25]: 7.99 mg/L | yield of taxol [2, 25]: 26.64 mg/L | growth rate [2, 26]: 2.4 times | total yield of taxane [2, 26]: 16.36 mg/L | yield of baccatin III [2, 26]: 2.25 mg/L | yield of cephalomannine [2, 26]: 5.79 mg/L | yield of taxol [2, 26]: 8.32 mg/L | growth rate [2, 27]: 2.6 times | total yield of taxane [2, 27]: 1.08 mg/L | yield of baccatin III [2, 27]: 0.16 mg/L | yield of cephalomannine [2, 27]: 0.63 mg/L | yield of taxol [2, 27]: 0.29 mg/L | growth rate [2, 28]: 2.6 times | total yield of taxane [2, 28]: 1.05 mg/L | yield of baccatin III [2, 28]: 0.15 mg/L | yield of taxol [2, 28]: 0.29 mg/L | growth rate [2, 29]: 2.5 times | total yield of taxane [2, 29]: 0.98 mg/L | yield of baccatin III [2, 29]: 0.15 mg/L | yield of cephalomannine [2, 29]: 0.56 mg/L | yield of taxol [2, 29]: 0.27 mg/L

NCCCCN [putrescine]
growth rate ([2]; 1 M added at start, 21 days): 1.0 times | total yield of taxane ([2]; 1 M added at start, 21 days): 0.36 mg/L | yield of baccatin III ([2]; 1 M added at start, 21 days): 0.01 mg/L | yield of cephalomannine ([2]; 1 M added at start, 21 days): 0.22 mg/L | yield of taxol ([2]; 1 M added at start, 21 days): 0.13 mg/L | growth rate [2, 16]: 1.1 times | total yield of taxane [2, 16]: 2.74 mg/L | yield of baccatin III [2, 16]: 0.80 mg/L | yield of cephalomannine [2, 16]: 0.97 mg/L | yield of taxol [2, 16]: 0.97 mg/L | growth rate [2, 17]: 1.8 times | total yield of taxane [2, 17]: 3.18 mg/L | yield of baccatin III [2, 17]: 1.13 mg/L | yield of cephalomannine [2, 17]: 0.99 mg/L | yield of taxol [2, 17]: 1.06 mg/L | growth rate [2, 18]: 2.2 times | total yield of taxane [2, 18]: 6.90 mg/L | yield of baccatin III [2, 18]: 1.95 mg/L | yield of cephalomannine [2, 18]: 1.88 mg/L | yield of taxol [2, 18]: 3.07 mg/L | growth rate [2, 19]: 2.6 times | total yield of taxane [2, 19]: 22.65 mg/L | yield of baccatin III [2, 19]: 6.60 mg/L | yield of cephalomannine [2, 19]: 5.25 mg/L | yield of taxol [2, 19]: 10.80 mg/L | growth rate [2, 20]: 3.1 times | total yield of taxane [2, 20]: 23.79 mg/L | yield of baccatin III [2, 20]: 6.98 mg/L | yield of cephalomannine [2, 20]: 5.37 mg/L | yield of taxol [2, 20]: 11.44 mg/L | growth rate [2, 26]: 3.0 times | total yield of taxane [2, 26]: 19.44 mg/L | yield of baccatin III [2, 26]: 5.74 mg/L | yield of cephalomannine [2, 26]: 5.51 mg/L | yield of taxol [2, 26]: 8.19 mg/L | growth rate [2, 27]: 2.7 times | total yield of taxane [2, 27]: 6.88 mg/L | yield of baccatin III [2, 27]: 1.10 mg/L | yield of cephalomannine [2, 27]: 2.31 mg/L | yield of taxol [2, 27]: 3.47 mg/L | growth rate [2, 28]: 2.8 times | total yield of taxane [2, 28]: 2.94 mg/L | yield of baccatin III [2, 28]: 0.40 mg/L | yield of cephalomannine [2, 28]: 1.02 mg/L | yield of taxol [2, 28]: 1.52 mg/L | growth rate [2, 29]: 2.8 times | total yield of taxane [2, 29]: 1.75 mg/L | yield of baccatin III [2, 29]: 0.36 mg/L | yield of cephalomannine [2, 29]: 0.70 mg/L | yield of taxol [2, 29]: 0.69 mg/L
